Measurements published in PubChem BioAssay (NCI).
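Results reflect a 48-hour exposure of cells in 96-well plates to compound at five concentrations. TGI denotes the concentration required for complete inhibition of growth.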

What was measured:
Assay in all cases: DTP human tumour cell line panel, 48 h
[1] = tested on: U251 CNS
[2] = tested on: SF-268 CNS
[3] = tested on: MALME-3M melanoma
[4] = tested on: NCI-H522 lung
[5] = tested on: SNB-19 CNS
[6] = tested on: 786-0 renal
[7] = tested on: SF-295 CNS
[8] = tested on: BT-549 breast
[9] = tested on: MOLT-4 leukemia
[10] = tested on: SR leukemia
[11] = tested on: LOX IMVI melanoma
[12] = tested on: NCI/ADR-RES ovarian
[13] = tested on: ACHN renal
[14] = tested on: HT29 colon
[15] = tested on: MCF7 breast
[16] = tested on: RPMI-8226 leukemia
[17] = tested on: UACC-62 melanoma
[18] = tested on: KM12 colon
[19] = tested on: MDA-N
[20] = tested on: RXF 393 renal
[21] = tested on: NCI-H23 lung
[22] = tested on: DU-145 prostate
[23] = tested on: HOP-92 NSCLC
[24] = tested on: A498 renal
[25] = tested on: SK-MEL-5 melanoma
[26] = tested on: MDA-MB-435
[27] = tested on: HOP-62 NSCLC
[28] = tested on: SK-OV-3 ovarian
[29] = tested on: HS 578T breast
[30] = tested on: CAKI-1 renal
[31] = tested on: K-562 leukemia
[32] = tested on: PC-3 prostate
[33] = tested on: OVCAR-5 ovarian
[34] = tested on: HCT-116 colon
[35] = tested on: EKVX NSCLC
[36] = tested on: UACC-257 melanoma
[37] = tested on: HCT-15 colon
[38] = tested on: A549 NSCLC
[39] = tested on: SN12C renal
[40] = tested on: HCC-2998 colon
[41] = tested on: MDA-MB-231 breast
[42] = tested on: M14 melanoma
[43] = tested on: TK-10 renal
[44] = tested on: CCRF-CEM leukemia
[45] = tested on: UO-31 renal
[46] = tested on: NCI-H460 lung
[47] = tested on: SK-MEL-2 melanoma
[48] = tested on: OVCAR-4 ovarian
[49] = tested on: T-47D breast
[50] = tested on: SNB-75 CNS
[51] = tested on: COLO 205 colon
[52] = tested on: OVCAR-3 ovarian
[53] = tested on: OVCAR-8 ovarian
[54] = tested on: HL-60(TB) leukemia
[55] = tested on: NCI-H226 lung
[56] = tested on: SK-MEL-28 melanoma
[57] = tested on: IGROV1 ovarian
[58] = tested on: SW-620 colon
[59] = tested on: SF-539 CNS

COc1ccccc1NCc1nnc(CCCCCCCCc2nnc(CNc3ccccc3OC)o2)o1
TGI [1]: > 100 µM | TGI [2]: > 100 µM | TGI [3]: > 100 µM | TGI [4]: > 100 µM | TGI [5]: > 100 µM | TGI [6]: > 100 µM | TGI [7]: > 100 µM | TGI [8]: > 100 µM | TGI [9]: > 100 µM | TGI [10]: > 100 µM | TGI [11]: > 100 µM | TGI [12]: > 100 µM | TGI [13]: > 100 µM | TGI [14]: > 100 µM | TGI [15]: > 100 µM | TGI [16]: > 100 µM | TGI [17]: > 100 µM | TGI [18]: > 100 µM | TGI [19]: > 100 µM | TGI [20]: > 100 µM | TGI [21]: > 100 µM | TGI [22]: > 100 µM | TGI [23]: > 100 µM | TGI [24]: > 100 µM | TGI [25]: > 100 µM | TGI [26]: > 100 µM | TGI [27]: > 100 µM | TGI [28]: > 100 µM | TGI [29]: > 100 µM | TGI [30]: > 100 µM | TGI [31]: > 100 µM | TGI [32]: > 100 µM | TGI [33]: > 100 µM | TGI [34]: > 100 µM | TGI [35]: > 100 µM | TGI [36]: > 100 µM | TGI [37]: > 100 µM | TGI [38]: > 100 µM | TGI [39]: > 100 µM | TGI [40]: > 100 µM | TGI [41]: > 100 µM | TGI [42]: > 100 µM | TGI [43]: > 100 µM | TGI [44]: > 100 µM | TGI [45]: > 100 µM | TGI [46]: > 100 µM | TGI [47]: > 100 µM | TGI [48]: > 100 µM | TGI [49]: > 100 µM | TGI [50]: > 100 µM | TGI [51]: > 100 µM | TGI [52]: > 100 µM | TGI [53]: > 100 µM

CC(C)(C)OCC1NC(=O)[C@@H]2Cc3c([nH]c4ccccc34)C(C3CCCCC3)N2C1=O (some centres not stated)
TGI [1]: 38.5 µM | TGI [54]: 52.1 µM | TGI [2]: 95.6 µM | TGI [3]: 42.8 µM | TGI [4]: 31.4 µM | TGI [5]: > 100 µM | TGI [6]: 50.2 µM | TGI [7]: 40.8 µM | TGI [55]: 74.9 µM | TGI [8]: 56.8 µM | TGI [9]: 49.6 µM | TGI [10]: 45.4 µM | TGI [11]: 33.3 µM | TGI [12]: 57.5 µM | TGI [13]: 68.6 µM | TGI [14]: 35.7 µM | TGI [15]: > 100 µM | TGI [56]: 77.6 µM | TGI [16]: 49 µM | TGI [17]: 31.2 µM | TGI [18]: 44 µM | TGI [57]: 57.7 µM | TGI [19]: 37.4 µM | TGI [20]: 38.4 µM | TGI [21]: 57.8 µM | TGI [22]: > 100 µM | TGI [23]: 55.7 µM | TGI [24]: > 100 µM | TGI [25]: 29 µM | TGI [26]: 35.7 µM | TGI [27]: 39.6 µM | TGI [28]: > 100 µM | TGI [29]: 51.8 µM | TGI [30]: 53.8 µM | TGI [31]: 61.6 µM | TGI [32]: 46.3 µM | TGI [33]: 50.8 µM | TGI [34]: 30.5 µM | TGI [35]: 67.9 µM | TGI [36]: 41 µM | TGI [37]: 69 µM | TGI [38]: > 100 µM | TGI [39]: 43.1 µM | TGI [41]: 35.1 µM | TGI [42]: 42 µM | TGI [43]: 67.6 µM | TGI [45]: 98.8 µM | TGI [58]: 85.5 µM | TGI [47]: 40.8 µM | TGI [48]: > 100 µM | TGI [49]: 71.1 µM | TGI [51]: 51.4 µM | TGI [52]: 33.8 µM | TGI [53]: 87.3 µM

O=C(NNc1cn[nH]c(=O)n1)c1cccc2nc3ccccc3nc12
TGI [1]: > 100 µM | TGI [54]: > 100 µM | TGI [2]: > 100 µM | TGI [3]: > 100 µM | TGI [5]: > 100 µM | TGI [6]: > 100 µM | TGI [7]: > 100 µM | TGI [55]: > 100 µM | TGI [8]: > 100 µM | TGI [9]: 27.9 µM | TGI [10]: 26.5 µM | TGI [11]: > 100 µM | TGI [12]: > 100 µM | TGI [13]: 60.1 µM | TGI [14]: > 100 µM | TGI [15]: > 100 µM | TGI [56]: > 100 µM | TGI [16]: > 100 µM | TGI [17]: > 100 µM | TGI [18]: > 100 µM | TGI [57]: > 100 µM | TGI [19]: > 100 µM | TGI [20]: 56.8 µM | TGI [21]: > 100 µM | TGI [22]: > 100 µM | TGI [23]: > 100 µM | TGI [24]: > 100 µM | TGI [25]: > 100 µM | TGI [26]: > 100 µM | TGI [28]: > 100 µM | TGI [29]: > 100 µM | TGI [30]: > 100 µM | TGI [31]: > 100 µM | TGI [32]: > 100 µM | TGI [33]: > 100 µM | TGI [34]: > 100 µM | TGI [35]: > 100 µM | TGI [36]: > 100 µM | TGI [37]: > 100 µM | TGI [38]: > 100 µM | TGI [39]: > 100 µM | TGI [40]: > 100 µM | TGI [41]: 84.3 µM | TGI [42]: > 100 µM | TGI [43]: 67 µM | TGI [44]: > 100 µM | TGI [46]: > 100 µM | TGI [58]: > 100 µM | TGI [47]: > 100 µM | TGI [48]: > 100 µM | TGI [49]: > 100 µM | TGI [51]: > 100 µM | TGI [52]: > 100 µM | TGI [53]: > 100 µM | TGI [59]: > 100 µM
